Assay: mn = molality of the nth substance listed, in mol/kg
Details: 101 kPa, Liquid, Alternating current cell with electrodes

CCCCCCCC[N+](C)(C)CCCCCC[N+](C)(C)CCCCCCCC.[Br-].[Br-] + O
Details	electrical conductivity [S/m]
288.15 K, m1 = 0.00378	0.05571
288.15 K, m1 = 0.00747	0.1028
288.15 K, m1 = 0.01106	0.1443
288.15 K, m1 = 0.01457	0.1827
288.15 K, m1 = 0.01799	0.2183
288.15 K, m1 = 0.02133	0.252
288.15 K, m1 = 0.02458	0.2838
288.15 K, m1 = 0.02776	0.3124
288.15 K, m1 = 0.03087	0.3407
288.15 K, m1 = 0.0339	0.3668
288.15 K, m1 = 0.03687	0.3917
288.15 K, m1 = 0.03977	0.4158
288.15 K, m1 = 0.0426	0.4383
288.15 K, m1 = 0.04537	0.4604
288.15 K, m1 = 0.04808	0.4812
288.15 K, m1 = 0.05073	0.5011
288.15 K, m1 = 0.05333	0.521
288.15 K, m1 = 0.05587	0.5391
288.15 K, m1 = 0.05835	0.555
288.15 K, m1 = 0.06079	0.5717
288.15 K, m1 = 0.06318	0.5855
288.15 K, m1 = 0.06551	0.6042
288.15 K, m1 = 0.0678	0.6203
288.15 K, m1 = 0.07005	0.6375
288.15 K, m1 = 0.07225	0.653
288.15 K, m1 = 0.07441	0.6677
288.15 K, m1 = 0.07652	0.6826
288.15 K, m1 = 0.0786	0.6955
288.15 K, m1 = 0.08064	0.7092
288.15 K, m1 = 0.08264	0.7199
288.15 K, m1 = 0.0846	0.7323
288.15 K, m1 = 0.08652	0.7423
288.15 K, m1 = 0.08841	0.7524
288.15 K, m1 = 0.09027	0.7618
288.15 K, m1 = 0.09209	0.7705
288.15 K, m1 = 0.09388	0.7794
288.15 K, m1 = 0.09564	0.7883
288.15 K, m1 = 0.09737	0.7958
288.15 K, m1 = 0.09907	0.8039
288.15 K, m1 = 0.1007	0.812
288.15 K, m1 = 0.1024	0.817
288.15 K, m1 = 0.104	0.8214
288.15 K, m1 = 0.1056	0.8271
288.15 K, m1 = 0.1071	0.8323
288.15 K, m1 = 0.1087	0.836
288.15 K, m1 = 0.1102	0.8402
288.15 K, m1 = 0.1117	0.8452
288.15 K, m1 = 0.1131	0.8492
288.15 K, m1 = 0.1146	0.8528
288.15 K, m1 = 0.116	0.8565
293.15 K, m1 = 0.00416	0.07018
293.15 K, m1 = 0.00821	0.09599
293.15 K, m1 = 0.01215	0.154
293.15 K, m1 = 0.01598	0.2062
293.15 K, m1 = 0.01972	0.2543
293.15 K, m1 = 0.02336	0.2987
293.15 K, m1 = 0.02691	0.3399
293.15 K, m1 = 0.03037	0.3785
293.15 K, m1 = 0.03374	0.415
293.15 K, m1 = 0.03704	0.4499
293.15 K, m1 = 0.04025	0.4818
293.15 K, m1 = 0.04339	0.5127
293.15 K, m1 = 0.04645	0.5415
293.15 K, m1 = 0.04944	0.5687
293.15 K, m1 = 0.05237	0.5953
293.15 K, m1 = 0.05523	0.6199
293.15 K, m1 = 0.05802	0.6436
293.15 K, m1 = 0.06075	0.6658
293.15 K, m1 = 0.06342	0.6867
293.15 K, m1 = 0.06604	0.707
293.15 K, m1 = 0.06859	0.7264
293.15 K, m1 = 0.0711	0.7446
293.15 K, m1 = 0.07355	0.762
293.15 K, m1 = 0.07595	0.7782
293.15 K, m1 = 0.0783	0.7934
293.15 K, m1 = 0.0806	0.8076
293.15 K, m1 = 0.08285	0.8213
293.15 K, m1 = 0.08507	0.8335
293.15 K, m1 = 0.08723	0.8458
293.15 K, m1 = 0.08936	0.8569
293.15 K, m1 = 0.09144	0.8677
293.15 K, m1 = 0.09348	0.8777
293.15 K, m1 = 0.09549	0.8873
293.15 K, m1 = 0.09745	0.8958
293.15 K, m1 = 0.09938	0.9045
293.15 K, m1 = 0.1013	0.9127
293.15 K, m1 = 0.1031	0.9206
293.15 K, m1 = 0.105	0.9279
293.15 K, m1 = 0.1068	0.9349
293.15 K, m1 = 0.1085	0.9413
293.15 K, m1 = 0.1103	0.9468
293.15 K, m1 = 0.1119	0.9533
293.15 K, m1 = 0.1136	0.9594
293.15 K, m1 = 0.1153	0.9653
293.15 K, m1 = 0.1169	0.9709
293.15 K, m1 = 0.1185	0.9766
293.15 K, m1 = 0.12	0.9819
293.15 K, m1 = 0.1216	0.9868
293.15 K, m1 = 0.1231	0.9919

Source: the NIST ThermoML archive (doi:10.1021/je500804j)
